For this test, the system named is SARS-CoV-2. As to the kind of experiment: Antiviral activity against SARS-CoV-2 Delta variant infected in African green monkey VeroE6/TMPRSS2 cells. The class given is functional, organism-based. Conditions: Severe acute respiratory syndrome coronavirus 2, Delta.

The term EC50 denotes the concentration giving half of the maximal effect. `CCC(CC)COC(=O)[C@H](C)N[P@](=O)(OC[C@H]1O[C@@](C#N)(c2ccc3c(N)ncnn23)[C@H](O)[C@@H]1O)Oc1ccccc1`: the EC50 stood at 161 nM.

For the origin of these results see ChEMBL document CHEMBL5576048, “A Second-Generation Oral SARS-CoV-2 Main Protease Inhibitor Clinical Candidate for the Treatment of COVID-19” (J Med Chem, 2024).
